Data: the Biogen ADME set (Fang et al. 2023)
Converted amounts (≈) assume the structure as drawn.

Conditions: for aqueous solubility: pH 6.8

Cc1ccc(Oc2ccc(N)cc2)nn1
MDR1-MDCK efflux ratio: 0.725
intrinsic clearance, human liver microsomes: ≤ 4.74 mL/min/kg
intrinsic clearance, rat liver microsomes: ≤ 10.7 mL/min/kg

CCN1CCN(c2ccc(NC(=O)c3ncoc3-c3ccc4ccccc4c3)cc2)CC1
intrinsic clearance, human liver microsomes: 19.1 mL/min/kg
intrinsic clearance, rat liver microsomes: 296 mL/min/kg
aqueous solubility: 1.02 µg/mL (≈ 2.39 µM)

CCNC(=O)c1ccc(CS(C)(=O)=O)cc1
MDR1-MDCK efflux ratio: 2.62
intrinsic clearance, human liver microsomes: ≤ 4.74 mL/min/kg
intrinsic clearance, rat liver microsomes: 20.6 mL/min/kg
aqueous solubility: 40.9 µg/mL (≈ 169 µM)

CCCn1cc(CNC(=O)CN2CCCC2)cn1
intrinsic clearance, human liver microsomes: ≤ 4.74 mL/min/kg
intrinsic clearance, rat liver microsomes: 253 mL/min/kg

Nc1nc(CN2CCN(c3ccc(F)cc3)CC2)cs1
MDR1-MDCK efflux ratio: 0.597
intrinsic clearance, human liver microsomes: ≤ 4.74 mL/min/kg
intrinsic clearance, rat liver microsomes: 49.7 mL/min/kg
aqueous solubility: 57 µg/mL (≈ 195 µM)

CN(CC(=O)Nc1ccncc1)C1CCCC1
MDR1-MDCK efflux ratio: 0.484
intrinsic clearance, human liver microsomes: ≤ 4.74 mL/min/kg
intrinsic clearance, rat liver microsomes: 393 mL/min/kg
aqueous solubility: 40.8 µg/mL (≈ 175 µM)

C#Cc1cccc(N(CC(=O)NC(N)=O)Cc2cccs2)c1
MDR1-MDCK efflux ratio: 2.25
intrinsic clearance, human liver microsomes: 38.5 mL/min/kg
intrinsic clearance, rat liver microsomes: 1610 mL/min/kg

COc1ccc(OCc2n[nH]c(-c3n[nH]c4c3CCC4)n2)cc1
MDR1-MDCK efflux ratio: 2.2
intrinsic clearance, human liver microsomes: 50.9 mL/min/kg
intrinsic clearance, rat liver microsomes: 1070 mL/min/kg

CC(C)(O)[C@H]1O[C@H]2CC[C@@]3(C)[C@@](O)(CC[C@H]4Cc5c([nH]c6ccccc56)[C@@]43C)C2=CC1=O
aqueous solubility: 0.99 µg/mL (≈ 2.27 µM)

Cc1ncsc1-c1nc(CNc2cc(F)cc(F)c2)no1
intrinsic clearance, human liver microsomes: 65.7 mL/min/kg
intrinsic clearance, rat liver microsomes: 661 mL/min/kg

Cc1n[nH]c(C)c1CCC(=O)N1CCOCC1
MDR1-MDCK efflux ratio: 13.5
intrinsic clearance, human liver microsomes: ≤ 4.74 mL/min/kg
intrinsic clearance, rat liver microsomes: ≤ 10.7 mL/min/kg
aqueous solubility: 25.6 µg/mL (≈ 108 µM)

Cc1nn(CCNS(=O)(=O)N2CCOCC2)c(C)c1C
MDR1-MDCK efflux ratio: 8.58
intrinsic clearance, human liver microsomes: 6.58 mL/min/kg
intrinsic clearance, rat liver microsomes: 265 mL/min/kg

Cc1cc(CSCc2ccc(C#N)cc2)no1
intrinsic clearance, human liver microsomes: 76.4 mL/min/kg
intrinsic clearance, rat liver microsomes: 1010 mL/min/kg

Cc1ccc(C(=O)NC2CCN(CC#N)CC2)cc1Br
MDR1-MDCK efflux ratio: 0.9
intrinsic clearance, human liver microsomes: ≤ 4.74 mL/min/kg
intrinsic clearance, rat liver microsomes: 97.6 mL/min/kg
aqueous solubility: 2.04 µg/mL (≈ 6.07 µM)

N#Cc1ccc(COc2ccccc2C#N)cc1
aqueous solubility: 1.71 µg/mL (≈ 7.3 µM)

CC1(C)CN(C(=O)c2cncc(Br)c2)CCO1
MDR1-MDCK efflux ratio: 0.783
intrinsic clearance, human liver microsomes: ≤ 4.74 mL/min/kg
intrinsic clearance, rat liver microsomes: ≤ 10.7 mL/min/kg
aqueous solubility: 83.3 µg/mL (≈ 278 µM)

COc1ccccc1-c1nnc([C@H]2CCN(Cc3ccccc3C)C2)o1
MDR1-MDCK efflux ratio: 0.755
intrinsic clearance, human liver microsomes: 158 mL/min/kg
intrinsic clearance, rat liver microsomes: 3190 mL/min/kg
aqueous solubility: 37 µg/mL (≈ 106 µM)

Cc1nc(CCNc2cnccc2C#N)cs1
intrinsic clearance, human liver microsomes: 55.6 mL/min/kg
intrinsic clearance, rat liver microsomes: 391 mL/min/kg

Cc1nc(CS(C)(=O)=O)sc1C(=O)Nc1ccccc1
intrinsic clearance, human liver microsomes: ≤ 4.74 mL/min/kg
intrinsic clearance, rat liver microsomes: ≤ 10.7 mL/min/kg

CCOc1ncccc1-c1nc(C)cc(NC)n1
MDR1-MDCK efflux ratio: 0.672
intrinsic clearance, human liver microsomes: ≤ 4.74 mL/min/kg
intrinsic clearance, rat liver microsomes: 26.1 mL/min/kg
aqueous solubility: 36.4 µg/mL (≈ 149 µM)

CNC(=O)c1ccc2c(c1)CCO[C@H]2CCN1CCN(c2ccc(C(N)=O)cc2)CC1
MDR1-MDCK efflux ratio: 21.5
intrinsic clearance, human liver microsomes: ≤ 4.74 mL/min/kg
intrinsic clearance, rat liver microsomes: ≤ 10.7 mL/min/kg
aqueous solubility: 90 µg/mL (≈ 213 µM)

COCc1ccccc1CNc1ccc2nnc(-c3ccccc3)n2n1
MDR1-MDCK efflux ratio: 9.33
intrinsic clearance, human liver microsomes: 101 mL/min/kg
intrinsic clearance, rat liver microsomes: 417 mL/min/kg
aqueous solubility: 2.8 µg/mL (≈ 8.11 µM)

COc1ccc(CN[C@@H]2CCC[C@H]2Cc2cc(C)no2)cc1OC
MDR1-MDCK efflux ratio: 3.3
intrinsic clearance, human liver microsomes: 36.9 mL/min/kg
intrinsic clearance, rat liver microsomes: 1120 mL/min/kg

COC(=O)Nc1ccc(Oc2nc3ccccc3o2)cc1
MDR1-MDCK efflux ratio: 0.543
intrinsic clearance, human liver microsomes: ≤ 4.74 mL/min/kg
intrinsic clearance, rat liver microsomes: 29.1 mL/min/kg
aqueous solubility: 22.2 µg/mL (≈ 78.1 µM)

Cn1ccc(CN2CCC(c3cnccn3)CC2)n1
MDR1-MDCK efflux ratio: 0.983
intrinsic clearance, human liver microsomes: ≤ 4.74 mL/min/kg
intrinsic clearance, rat liver microsomes: 26.8 mL/min/kg
aqueous solubility: 50 µg/mL (≈ 194 µM)

COc1cc(CNC(=O)NC2CCCCC2)cc(OC)c1O
MDR1-MDCK efflux ratio: 4.18
intrinsic clearance, human liver microsomes: ≤ 4.74 mL/min/kg
intrinsic clearance, rat liver microsomes: ≤ 10.7 mL/min/kg
aqueous solubility: 78 µg/mL (≈ 253 µM)

COc1ccc(CCCNc2nnc(C)o2)cc1
intrinsic clearance, human liver microsomes: ≤ 4.74 mL/min/kg
intrinsic clearance, rat liver microsomes: 151 mL/min/kg
aqueous solubility: 25.4 µg/mL (≈ 103 µM)

CC(C)C[C@@H](CO)n1cc(-c2ccccc2Cn2cccn2)nn1
MDR1-MDCK efflux ratio: 6.29
intrinsic clearance, human liver microsomes: 101 mL/min/kg
intrinsic clearance, rat liver microsomes: 513 mL/min/kg
aqueous solubility: 17 µg/mL (≈ 52.3 µM)

CC(C)CCN1CCC(CNC(=O)C2CC=CC2)CC1
MDR1-MDCK efflux ratio: 3.77
intrinsic clearance, human liver microsomes: 12.5 mL/min/kg
intrinsic clearance, rat liver microsomes: 141 mL/min/kg

COCc1nn(CCCN2CCCCC2)c(=O)o1
MDR1-MDCK efflux ratio: 0.662
intrinsic clearance, human liver microsomes: ≤ 4.74 mL/min/kg
intrinsic clearance, rat liver microsomes: 370 mL/min/kg

CC(C)Nc1ccc(-c2cc3c(cc2CO)OCCO3)cn1
MDR1-MDCK efflux ratio: 0.775
intrinsic clearance, human liver microsomes: 13.7 mL/min/kg
intrinsic clearance, rat liver microsomes: 5720 mL/min/kg

CCN(C(C)=O)c1ccc(C)cc1C(=O)O
MDR1-MDCK efflux ratio: 0.864
intrinsic clearance, human liver microsomes: ≤ 4.74 mL/min/kg
intrinsic clearance, rat liver microsomes: ≤ 10.7 mL/min/kg
aqueous solubility: 34.9 µg/mL (≈ 158 µM)

Cc1cc(Br)cn(Cc2ccc(C#N)cc2F)c1=O
MDR1-MDCK efflux ratio: 0.644
intrinsic clearance, human liver microsomes: ≤ 4.74 mL/min/kg
intrinsic clearance, rat liver microsomes: 102 mL/min/kg

Nc1ccc(C(=O)N2CCOCC2)c(Cl)c1
MDR1-MDCK efflux ratio: 0.476
intrinsic clearance, human liver microsomes: ≤ 4.74 mL/min/kg
intrinsic clearance, rat liver microsomes: ≤ 10.7 mL/min/kg
aqueous solubility: 38.1 µg/mL (≈ 159 µM)

Cc1cc(F)ccc1NC(=O)Cn1cncn1
intrinsic clearance, human liver microsomes: ≤ 4.74 mL/min/kg
intrinsic clearance, rat liver microsomes: ≤ 10.7 mL/min/kg
aqueous solubility: 35.1 µg/mL (≈ 150 µM)

COc1cc(CNc2nc3ccccc3nc2C)ccn1
MDR1-MDCK efflux ratio: 0.664
intrinsic clearance, human liver microsomes: 11 mL/min/kg
intrinsic clearance, rat liver microsomes: 124 mL/min/kg
aqueous solubility: 26.8 µg/mL (≈ 95.7 µM)

CCc1cccc(NC(=O)COC(=O)c2cnc(C)cn2)c1
aqueous solubility: 56.1 µg/mL (≈ 187 µM)

COc1nc2sc(C(=O)NC3CC3)c(N)c2c(C)c1Cl
fraction unbound, human plasma: 0.0176
fraction unbound, rat plasma: 0.0283
intrinsic clearance, human liver microsomes: 9.77 mL/min/kg
intrinsic clearance, rat liver microsomes: 133 mL/min/kg

Cc1ncc(CCN2C(=O)NC3(CCCC3)C2=O)s1
MDR1-MDCK efflux ratio: 91
intrinsic clearance, human liver microsomes: ≤ 4.74 mL/min/kg
intrinsic clearance, rat liver microsomes: 63.6 mL/min/kg

CCc1c2c(nc3ccc(O)cc13)-c1cc3c(c(=O)n1C2)COC(=O)[C@]3(O)CC
MDR1-MDCK efflux ratio: 50.8
intrinsic clearance, human liver microsomes: 18.3 mL/min/kg
intrinsic clearance, rat liver microsomes: ≤ 10.7 mL/min/kg

CC(=O)NCCCOc1ccc(CN2C[C@H](Oc3cccc(C)c3)[C@@H](O)C2)cc1
MDR1-MDCK efflux ratio: 31.2
intrinsic clearance, human liver microsomes: 12.1 mL/min/kg
intrinsic clearance, rat liver microsomes: 553 mL/min/kg
aqueous solubility: 44.9 µg/mL (≈ 113 µM)

c1ccc(-c2noc(Cn3ccnc3)n2)nc1
MDR1-MDCK efflux ratio: 1.44
intrinsic clearance, human liver microsomes: ≤ 4.74 mL/min/kg
intrinsic clearance, rat liver microsomes: ≤ 10.7 mL/min/kg

COC(=O)c1ccc(NS(=O)(=O)c2ccc3c(c2)n(C)c(=O)n3C)cc1
MDR1-MDCK efflux ratio: 20.5
aqueous solubility: 15.6 µg/mL (≈ 41.6 µM)

CC(C)c1nccn1-c1cccc([C@@H]2CCCN2C(=O)CCc2ccccc2)n1
MDR1-MDCK efflux ratio: 10.2
intrinsic clearance, human liver microsomes: 557 mL/min/kg
intrinsic clearance, rat liver microsomes: 1060 mL/min/kg
aqueous solubility: 51 µg/mL (≈ 131 µM)

O=C(c1cccc2ccccc12)N1CCCC(C(=O)N2CCc3ccccc3C2)C1 (stereo unspecified)
MDR1-MDCK efflux ratio: 5.83
intrinsic clearance, human liver microsomes: 696 mL/min/kg
intrinsic clearance, rat liver microsomes: 4470 mL/min/kg
aqueous solubility: 56.4 µg/mL (≈ 142 µM)

O=C(c1cc(F)ccc1F)N1CCN(C(=O)C2CC2)CC1
MDR1-MDCK efflux ratio: 1.21
intrinsic clearance, human liver microsomes: ≤ 4.74 mL/min/kg
intrinsic clearance, rat liver microsomes: 19.8 mL/min/kg

COC1(c2nc(Cc3ccccc3)no2)CCN(Cc2ncccc2Cl)CC1
MDR1-MDCK efflux ratio: 0.76
intrinsic clearance, human liver microsomes: 123 mL/min/kg
intrinsic clearance, rat liver microsomes: 1780 mL/min/kg

C#C[C@@](C)(CC)NC(=O)c1cc(F)cnc1NC1CC(F)(F)C1
MDR1-MDCK efflux ratio: 0.802
fraction unbound, human plasma: 0.0469
fraction unbound, rat plasma: 0.0708
intrinsic clearance, human liver microsomes: 69.6 mL/min/kg
intrinsic clearance, rat liver microsomes: 313 mL/min/kg

CCc1noc(CN2CCCN(C(C)=O)c3ccccc32)n1
MDR1-MDCK efflux ratio: 1.25
intrinsic clearance, human liver microsomes: 51 mL/min/kg
intrinsic clearance, rat liver microsomes: 855 mL/min/kg
aqueous solubility: 55.4 µg/mL (≈ 185 µM)

O=C(NCC1CC1)c1cncn1-c1ccc(F)cc1
MDR1-MDCK efflux ratio: 1.26
intrinsic clearance, human liver microsomes: ≤ 4.74 mL/min/kg
intrinsic clearance, rat liver microsomes: ≤ 10.7 mL/min/kg
aqueous solubility: 52.2 µg/mL (≈ 201 µM)

CCCc1nnc2sc(-c3cc(C(C)C)nn3C)nn12
intrinsic clearance, human liver microsomes: 31.3 mL/min/kg
intrinsic clearance, rat liver microsomes: 593 mL/min/kg
aqueous solubility: 17.9 µg/mL (≈ 61.5 µM)

Nc1ncnc2c1c(-c1ccc(Oc3ccccc3)cc1)nn2[C@@H]1CCCNC1
MDR1-MDCK efflux ratio: 21
fraction unbound, human plasma: 0.0905
fraction unbound, rat plasma: 0.0702
intrinsic clearance, human liver microsomes: 35 mL/min/kg
intrinsic clearance, rat liver microsomes: 103 mL/min/kg
aqueous solubility: 40 µg/mL (≈ 103 µM)

N[C@@H]1CCCN(c2c(/C=C3\SC(=O)NC3=O)cccc2-c2ccccc2)C1
MDR1-MDCK efflux ratio: 28.9
intrinsic clearance, human liver microsomes: 9.01 mL/min/kg
intrinsic clearance, rat liver microsomes: 25.9 mL/min/kg

C[C@@]1(c2ncncc2F)NC(=O)c2cc(-c3cn[nH]c3)ccc21
MDR1-MDCK efflux ratio: 21.8
intrinsic clearance, human liver microsomes: ≤ 4.74 mL/min/kg
intrinsic clearance, rat liver microsomes: 34.9 mL/min/kg
aqueous solubility: 37.5 µg/mL (≈ 121 µM)

CC(C)(C)NC(=O)Cn1nc(C(c2ccccc2)c2ccccc2)oc1=O
MDR1-MDCK efflux ratio: 4.07
intrinsic clearance, human liver microsomes: 22.4 mL/min/kg
intrinsic clearance, rat liver microsomes: 747 mL/min/kg
aqueous solubility: 6.02 µg/mL (≈ 16.5 µM)

c1ccc(-c2cn(C3CNC3)nn2)cc1
intrinsic clearance, human liver microsomes: ≤ 4.74 mL/min/kg
intrinsic clearance, rat liver microsomes: 28.6 mL/min/kg

Cn1ncnc1NCc1cc(F)cc(F)c1
MDR1-MDCK efflux ratio: 0.757
intrinsic clearance, human liver microsomes: ≤ 4.74 mL/min/kg
intrinsic clearance, rat liver microsomes: ≤ 10.7 mL/min/kg

CC(=O)N(C)[C@@H]1CO[C@@H]2CCN(C[C@]3(O)CC[C@@H](C(C)(C)C)CC3)C[C@@H]2C[C@@]1(C)O
MDR1-MDCK efflux ratio: 23.5
intrinsic clearance, human liver microsomes: 65 mL/min/kg
intrinsic clearance, rat liver microsomes: 276 mL/min/kg
